Measurements reported in US11109593B2, “Isoxazolin-5-one derivative and herbicide containing same as active ingredient” (HOKKO CHEMICAL INDUSTRY CO., LTD., priority 2017, dated 2021).

How the values were obtained:
Assay type in all cases: in vivo
Chenopodium album [1] = assay: Test Example 3: herbicidal effect test by treatment of dry field farming soil (one day after seeding); details: 120 g/10a active ingredient, evaluated 14 days after treatment
Outline: (§1)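 Seeds (20 each) mixed into top 1 cm of alluvium in pots, surface pressed. One day later, diluted emulsion sprayed onto soil, 100 L/10 a, 120 g a.i./10 a. Dry weight at 14 d vs untreated gave % herbicidal rate; n=2.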

Echinochloa crus-galli [2] = assay: as above; details: 120 g/10a active ingredient, evaluated 14 days after treatment
Outline: as §1

southern crabgrass [3] = assay: as above; details: 120 g/10a active ingredient, evaluated 14 days after treatment
Outline: as §1

Amaranthus viridis [4] = assay: as above; details: 120 g/10a active ingredient, evaluated 14 days after treatment
Outline: as §1

[5] = system: broad leaf weeds (Lindernia pyxidaria and Monochoria vaginalis); assay: Test Example 2: herbicidal effect test by treatment during growing period in paddy rice cultivation (seven days after seeding); details: 120 g/10a active ingredient, assessed 14 days after treatment, dry weight vs untreated area
Outline: (§2)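 Herbicidal rate = (1 − treated/untreated mean dry weight) × 100, scored 14 days after application, two replicates per rate. Treatment: diluted emulsion dropped onto paddy water seven days after sowing, 120 g active ingredient per 10 ares, in a glass greenhouse.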

Scirpus juncoides [6] = assay: as above; details: 120 g/10a active ingredient, assessed 14 days after treatment, dry weight vs untreated area
Outline: as §2

Echinochloa crus-galli [7] = assay: as above; details: 120 g/10a active ingredient, assessed 14 days after treatment, dry weight vs untreated area
Outline: as §2

[8] = system: broad leaf weeds (Lindernia pyxidaria and Monochoria vaginalis); assay: Test Example 1: herbicidal effect test by treatment of rice paddy soil (immediately after seeding); details: 120 g/10a active ingredient, dry weight vs untreated area, 14 days after treatment
Outline: (§3)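 Applied at 120 g a.i./10 ares as diluted emulsion dropped into flooded (~3 cm) paddy soil pots right after sowing seeds 0–1 cm deep; greenhouse, two replicates. At day 14, dry weight of treated versus untreated plants gives % herbicidal rate.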

Scirpus juncoides [9] = assay: as above; details: 120 g/10a active ingredient, dry weight vs untreated area, 14 days after treatment
Outline: as §3

Echinochloa crus-galli [10] = assay: as above; details: 120 g/10a active ingredient, dry weight vs untreated area, 14 days after treatment
Outline: as §3

Chenopodium album [11] = assay: Test Example 4: herbicidal effect test by treatment of leave and stem in dry field farming (seven days after seeding); details: 120 g/10a active ingredient; emulsion sprayed seven days after seeding; evaluated 14 days after treatment
Outline: (§4)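 Twenty seeds per species were mixed into the top 1 cm of alluvial soil in 36 cm^2 pots; emulsions were sprayed seven days after seeding at 100 L per 10 ares (120 g active ingredient per 10 ares). Herbicidal rate (%) = {1 − treated/untreated mean dry weight} × 100, 14 days after treatment, duplicate.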

Echinochloa crus-galli [12] = assay: as above; details: 120 g/10a active ingredient; emulsion sprayed seven days after seeding; evaluated 14 days after treatment
Outline: as §4

southern crabgrass [13] = assay: as above; details: 120 g/10a active ingredient; emulsion sprayed seven days after seeding; evaluated 14 days after treatment
Outline: as §4

Amaranthus viridis [14] = assay: as above; details: 120 g/10a active ingredient; emulsion sprayed seven days after seeding; evaluated 14 days after treatment
Outline: as §4

Row | Structure (SMILES) | herbicidal rate, Chenopodium album (Chenopodium album [1]) [%] | herbicidal rate, Echinochloa crus-galli (Echinochloa crus-galli [2]) [%] | herbicidal rate, southern crabgrass (southern crabgrass [3]) [%] | herbicidal rate, Amaranthus viridis (Amaranthus viridis [4]) [%] | Herbicidal rate (%) Lindernia pyxidaria [5] [%] | Herbicidal rate (%) Monochoria vaginalis [5] [%] | Herbicidal rate (%) Scirpus juncoides (Scirpus juncoides [6]) [%] | Herbicidal rate (%) Echinochloa crus-galli (Echinochloa crus-galli [7]) [%] | Herbicidal rate (%) Lindernia pyxidaria [8] [%] | Herbicidal rate (%) Monochoria vaginalis [8] [%] | Herbicidal rate (%) Scirpus juncoides (Scirpus juncoides [9]) [%] | Herbicidal rate (%) Echinochloa crus-galli (Echinochloa crus-galli [10]) [%] | herbicidal effect (herbicidal rate), Chenopodium album (Chenopodium album [11]) [%] | herbicidal effect (herbicidal rate), Echinochloa crus-galli (Echinochloa crus-galli [12]) [%] | herbicidal effect (herbicidal rate), southern crabgrass (southern crabgrass [13]) [%] | herbicidal effect (herbicidal rate), Amaranthus viridis (Amaranthus viridis [14]) [%]
1 | CCC(C)n1oc(=O)c(Cc2ccccc2N(C(=O)Oc2ccccc2)S(=O)(=O)C(F)(F)F)c1C (centres unmarked) [Compound 1-763] | 90 | 90 | 90 | 90 | 90 | 90 | 90 | 90 | 90 | 90 | 90 | 90 | 40 | 90 | 90 | 40
2 | COCC(C)n1oc(=O)c(Cc2ccccc2N(C(=O)Oc2ccccc2)S(=O)(=O)C(F)(F)F)c1C (centres unmarked) [Compound 1-765] | 90 | 90 | 90 | 90 | 90 | 90 | 90 | 90 | 90 | 90 | 90 | 90 | 40 | 90 | 90 | 40
3 | Cc1c(Cc2ccccc2N(C(=O)Oc2ccccc2)S(=O)(=O)C(F)(F)F)c(=O)on1C(C)c1ccccc1 (centres unmarked) [Compound 1-766] | 90 | 90 | 90 | 90 | 90 | 90 | 90 | 90 | 90 | 90 | 90 | 90 | 40 | 90 | 90 | 40
4 | Cc1c(Cc2ccccc2N(C(=O)OCc2ccccc2)S(=O)(=O)C(F)(F)F)c(=O)on1C(C)(C)C [Compound 1-781] | 90 | 90 | 90 | 90 | 90 | 90 | 90 | 90 | 90 | 90 | 90 | 90 | 40 | 90 | 90 | 40
5 | Cc1c(Cc2ccccc2N(C(=O)OCc2ccccc2)S(=O)(=O)C(F)(F)F)c(=O)on1CC(C)C [Compound 1-785] | 90 | 90 | 90 | 90 | 90 | 90 | 90 | 90 | 90 | 90 | 90 | 90 | 40 | 90 | 90 | 40
6 | COCC(C)n1oc(=O)c(Cc2ccccc2N(C(=O)OCc2ccccc2)S(=O)(=O)C(F)(F)F)c1C (centres unmarked) [Compound 1-790] | 90 | 90 | 90 | 90 | 90 | 90 | 90 | 90 | 90 | 90 | 90 | 90 | 40 | 90 | 90 | 40
7 | Cc1c(Cc2ccccc2N(C(=O)OCc2ccccc2)S(=O)(=O)C(F)(F)F)c(=O)on1C(C)c1ccccc1 (centres unmarked) [Compound 1-796] | 90 | 90 | 90 | 90 | 90 | 90 | 90 | 90 | 90 | 90 | 90 | 90 | 40 | 90 | 90 | 40
8 | CCC(C)n1oc(=O)c(Cc2ccccc2N(C(=O)OCC2CCCO2)S(=O)(=O)C(F)(F)F)c1C (centres unmarked) [Compound 1-829] | 90 | 90 | 90 | 90 | 90 | 90 | 90 | 90 | 90 | 90 | 90 | 90 | 40 | 90 | 90 | 40
